target: T1, human adenosine A2b receptor (Homo sapiens, UniProt P29275); experiment: Cellular in vitro reporter gene test for A2b receptor activity (antagonism of NECA); type: cell-based; set-up: expressed in transfected cells; host or cells: CHO-K1 (Chinese hamster ovary) with CRE-luciferase reporter; conditions: recombinant CHO-K1 cells, CRE-luciferase reporter, co-incubation with EC50 concentration of NECA, 3 hours
T1 sequence (P29275 1-332): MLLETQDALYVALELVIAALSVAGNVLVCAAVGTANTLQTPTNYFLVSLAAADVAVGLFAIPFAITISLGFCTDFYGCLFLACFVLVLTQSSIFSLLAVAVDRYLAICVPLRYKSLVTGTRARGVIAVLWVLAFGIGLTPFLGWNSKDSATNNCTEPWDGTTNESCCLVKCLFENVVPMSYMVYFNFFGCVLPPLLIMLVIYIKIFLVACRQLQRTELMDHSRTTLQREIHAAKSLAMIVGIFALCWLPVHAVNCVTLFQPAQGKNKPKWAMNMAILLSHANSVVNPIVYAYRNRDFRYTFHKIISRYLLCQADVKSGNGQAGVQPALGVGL
Procedure, shortened: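 CHO-K1 cells expressing recombinant human A2b receptor plus a CRE-driven firefly luciferase reporter. Compounds co-incubated with NECA at its same-day EC50 concentration; luminescence read 3 hours after NECA addition. IC50 values, sometimes means of several determinations rounded to two significant figures.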

| Structure (SMILES) | IC50 [nM] |
| --- | --- |
| Cc1c(Cn2nc[nH]c2=O)sc2c1c(=O)n(C1CC1)c(=O)n2CC1CCCO1 (racemic) [Example 49, 3-Cyclopropyl-5-methyl-6-[(5-oxo-4,5-dihydro-1H-1,2,4-triazol-1-yl)methyl]-1-(tetrahydrofuran-2-ylmethyl)thieno[2,3-d]pyrimidine-2,4(1H,3H)-dione] | 110 |
| Cc1c(CN2CCNC2=O)sc2c1c(=O)n(C1CC1C)c(=O)n2CCF (single isomer, unassigned) [Example 233, 1-(2-Fluoroethyl)-5-methyl-3-(2-methylcyclopropyl)-6-[(2-oxoimidazolidin-1-yl)methyl]thieno[2,3-d]pyrimidine-2,4(1H,3H)-dione] | 11 |
| CCOCCn1c(=O)n(C2(C)CC2)c(=O)c2c(C)c(Cn3nc[nH]c3=O)sc21 [Example 78, 1-(2-Ethoxyethyl)-5-methyl-3-(1-methylcyclopropyl)-6-[(5-oxo-4,5-dihydro-1H-1,2,4-triazol-1-yl)methyl]thieno[2,3-d]pyrimidine-2,4(1H,3H)-dione] | 560 |
| Cc1c(Cn2nc[nH]c2=O)sc2c1c(=O)n(C1CCC1)c(=O)n2CCC(F)(F)F [Example 114, 3-Cyclobutyl-5-methyl-6-[(5-oxo-4,5-dihydro-1H-1,2,4-triazol-1-yl)methyl]-1-(3,3,3-trifluoropropyl)thieno[2,3-d]pyrimidine-2,4(1H,3H)-dione] | 1.9 |
| COCCn1c(=O)n([C@H]2C[C@@H]2C)c(=O)c2c(C)c(Cn3nc[nH]c3=O)sc21 [Example 325, 1-(2-Methoxyethyl)-5-methyl-3-[(1S,2S)-2-methylcyclopropyl]-6-[(5-oxo-4,5-dihydro-1H-1,2,4-triazol-1-yl)methyl]thieno[2,3-d]pyrimidine-2,4(1H,3H)-dione] | 43 |
| Cc1c(CN2CCNC2=O)sc2c1c(=O)n(C1CC1C)c(=O)n2C (single isomer, unassigned) [Example 222, 1,5-Dimethyl-3-(2-methylcyclopropyl)-6-[(2-oxoimidazolidin-1-yl)methyl]thieno[2,3-d]pyrimidine-2,4(1H,3H)-dione] | 1.6 |
| CCc1c(CN2CCNC2=O)sc2c1c(=O)n(C1(C)CC1)c(=O)n2CCC(F)(F)F [Example 218, 5-Ethyl-3-(1-methylcyclopropyl)-6-[(2-oxoimidazolidin-1-yl)methyl]-1-(3,3,3-trifluoropropyl)thieno[2,3-d]pyrimidine-2,4(1H,3H)-dione] | 54 |
| Cc1c(Cn2[nH]ccc2=O)sc2c1c(=O)n(C1(C)CC1)c(=O)n2CCC(F)(F)F [Example 215, 5-Methyl-3-(1-methylcyclopropyl)-6-[(5-oxo-2,5-dihydro-1H-pyrazol-1-yl)methyl]-1-(3,3,3-trifluoropropyl)thieno[2,3-d]pyrimidine-2,4(1H,3H)-dione] | 73 |
| Cc1c(Cn2nc[nH]c2=O)sc2c1c(=O)n(C1(C)CC1)c(=O)n2C [Example 53, 1,5-Dimethyl-3-(1-methylcyclopropyl)-6-[(5-oxo-4,5-dihydro-1H-1,2,4-triazol-1-yl)methyl]thieno[2,3-d]pyrimidine-2,4(1H,3H)-dione] | 120 |
| Cc1c(Cn2[nH]ccc2=O)sc2c1c(=O)n(C1CC1C)c(=O)n2CCOC(F)(F)F (racemic) [Example 273, 5-Methyl-3-(2-methylcyclopropyl)-6-[(5-oxo-2,5-dihydro-1H-pyrazol-1-yl)methyl]-1-[2-(trifluoromethoxy)ethyl]thieno[2,3-d]pyrimidine-2,4(1H,3H)-dione] | 67 |
| Cc1c(Cn2cc[nH]c2=O)sc2c1c(=O)n(C1CC1C)c(=O)n2CCOC(F)(F)F (single isomer, unassigned) [Example 272, 5-Methyl-3-(2-methylcyclopropyl)-6-[(2-oxo-2,3-dihydro-1H-imidazol-1-yl)methyl]-1-[2-(trifluoromethoxy)ethyl]thieno[2,3-d]pyrimidine-2,4(1H,3H)-dione] | 1 |
| Cc1c(CN2CCNC2=O)sc2c1c(=O)n(C1(C)CCC1)c(=O)n2CCC(F)(F)F [Example 134, 5-Methyl-3-(1-methylcyclobutyl)-6-[(2-oxoimidazolidin-1-yl)methyl]-1-(3,3,3-trifluoropropyl)thieno[2,3-d]pyrimidine-2,4(1H,3H)-dione] | 34 |
| Cc1c(CN2CCNC(=O)C2=O)sc2c1c(=O)n(C1CC1)c(=O)n2CCC(F)(F)F [Example 13, 3-Cyclopropyl-6-[(2,3-dioxopiperazin-1-yl)methyl]-5-methyl-1-(3,3,3-trifluoropropyl)thieno[2,3-d]pyrimidine-2,4(1H,3H)-dione] | 4 |
| Cc1c(Cn2[nH]ccc2=O)sc2c1c(=O)n(C1CC1C)c(=O)n2CCOC(F)(F)F (single isomer, unassigned) [Example 274, 5-Methyl-3-(2-methylcyclopropyl)-6-[(5-oxo-2,5-dihydro-1H-pyrazol-1-yl)methyl]-1-[2-(trifluoromethoxy)ethyl]thieno[2,3-d]pyrimidine-2,4(1H,3H)-dione] | 86 |
| CO[C@H]1C[C@@H](n2c(=O)c3c(C)c(CN4CCNC(=O)C4=O)sc3n(CCC(F)(F)F)c2=O)C1 [Example 157, 6-[(2,3-Dioxopiperazin-1-yl)methyl]-3-(cis-3-methoxycyclobutyl)-5-methyl-1-(3,3,3-trifluoropropyl)thieno[2,3-d]pyrimidine-2,4(1H,3H)-dione] | 63 |
| Cc1c(CN2CCNC2=O)sc2c1c(=O)n(C1CC1C)c(=O)n2CC1CCOC1 (single isomer, unassigned) [Example 292, 5-Methyl-3-(2-methylcyclopropyl)-6-[(2-oxoimidazolidin-1-yl)methyl]-1-(tetrahydrofuran-3-ylmethyl)thieno[2,3-d]pyrimidine-2,4(1H,3H)-dione] | 150 |
| Cc1c(CN2CCNC2=O)sc2c1c(=O)n(C1(C)CC1)c(=O)n2CC1CC1(F)F (single isomer, unassigned) [Example 65, 1-[(2,2-Difluorocyclopropyl)methyl]-5-methyl-3-(1-methylcyclopropyl)-6-[(2-oxoimidazolidin-1-yl)methyl]thieno[2,3-d]pyrimidine-2,4(1H,3H)-dione] | 36 |
| COCCn1c(=O)n(C2CCCC2)c(=O)c2c(C)c(CN3CCNC3=NC#N)sc21 [Example 190, [1-{[3-Cyclopentyl-1-(2-methoxyethyl)-5-methyl-2,4-dioxo-1,2,3,4-tetrahydrothieno[2,3-d]pyrimidin-6-yl]methyl}imidazolidin-2-ylidene]cyanamide] | 28 |
| Cc1c(CN2CCNC2=O)sc2c1c(=O)n(C1CC1C)c(=O)n2CCCF (racemic) [Example 90, 1-(3-Fluoropropyl)-5-methyl-3-(2-methylcyclopropyl)-6-[(2-oxoimidazolidin-1-yl)methyl]thieno[2,3-d]pyrimidine-2,4(1H,3H)-dione] | 5.3 |
| [2H]C([2H])(c1sc2c(c1C)c(=O)n(C1CC1)c(=O)n2CCOC)N1CCNC1=O [Example 30, 3-Cyclopropyl-1-(2-methoxyethyl)-5-methyl-6-[(2-oxoimidazolidin-1-yl)dideuteromethyl]thieno[2,3-d]pyrimidine-2,4(1H,3H)-dione] | 9.3 |
| Cc1c(Cn2cc[nH]c2=O)sc2c1c(=O)n(C1CC1C)c(=O)n2CCOC(F)(F)F (racemic) [Example 270, 5-Methyl-3-(2-methylcyclopropyl)-6-[(2-oxo-2,3-dihydro-1H-imidazol-1-yl)methyl]-1-[2-(trifluoromethoxy)ethyl]thieno[2,3-d]pyrimidine-2,4(1H,3H)-dione] | 1.5 |
| Cc1c(CN2CCNC2=O)sc2c1c(=O)n(C1CC1(C)C)c(=O)n2CCC(F)(F)F (single isomer, unassigned) [Example 102, 3-(2,2-Dimethylcyclopropyl)-5-methyl-6-[(2-oxoimidazolidin-1-yl)methyl]-1-(3,3,3-trifluoropropyl)thieno[2,3-d]pyrimidine-2,4(1H,3H)-dione] | 7.3 |
| CO[C@H]1C[C@H](n2c(=O)c3c(C)c(CN4CCNC4=O)sc3n(CCC(F)(F)F)c2=O)C1 [Example 144, 3-(trans-3-Methoxycyclobutyl)-5-methyl-6-[(2-oxoimidazolidin-1-yl)methyl]-1-(3,3,3-trifluoropropyl)thieno[2,3-d]pyrimidine-2,4(1H,3H)-dione] | 10 |
| Cc1c(CN2CCNC2=O)sc2c1c(=O)n(C1CC1)c(=O)n2CC1CC(F)(F)C1 [Example 204, 3-Cyclopropyl-1-[(3,3-difluorocyclobutyl)methyl]-5-methyl-6-[(2-oxoimidazolidin-1-yl)methyl]thieno[2,3-d]pyrimidine-2,4(1H,3H)-dione] | 1.8 |
| [2H]C([2H])(c1sc2c(c1C)c(=O)n(C1CC1)c(=O)n2CCC(F)(F)F)N1CCNC1=O [Example 16, 3-Cyclopropyl-5-methyl-6-[(2-oxoimidazolidin-1-yl)dideuteromethyl]-1-(3,3,3-trifluoropropyl)thieno[2,3-d]pyrimidine-2,4(1H,3H)-dione] | 3 |
| CO[C@H]1C[C@H](n2c(=O)c3c(C)c(Cn4nc[nH]c4=O)sc3n(CCC(F)(F)F)c2=O)C1 [Example 148, 3-(trans-3-Methoxycyclobutyl)-5-methyl-6-[(5-oxo-4,5-dihydro-1H-1,2,4-triazol-1-yl)methyl]-1-(3,3,3-trifluoropropyl)thieno[2,3-d]pyrimidine-2,4(1H,3H)-dione] | 66 |
